System: 967376-340-R-J2-PDC multicell spheroid viability
Assay: Anticancer human tumor 967376-340-R-J2-PDC patient-derived colon adenocarcinoma cell line growth inhibition [PI3K]
Conditions: for IC50: curve of first compound; for viability, T/C: stronger effect = lower value
In short: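 Spheroid viability read-out. Co-cultures contained the tumor line plus HUVEC and human MSCs. Each agent was paired with a PI3K inhibitor (inavolisib, alpelisib, duvelisib, copanlisib) across half-log dilutions starting at clinical Cmax, or at 10 microM when Cmax was unknown.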

[1] = second compound 0.0316 µM, first compound 0.0316 µM
[2] = second compound 0.0316 µM, first compound 0.1 µM
[3] = second compound 0.0316 µM, first compound 0.316 µM
[4] = second compound 0.0316 µM, first compound 1 µM
[5] = second compound 0.1 µM, first compound 0.0316 µM
[6] = second compound 0.1 µM, first compound 0.1 µM
[7] = second compound 0.1 µM, first compound 0.316 µM
[8] = second compound 0.1 µM, first compound 1 µM
[9] = second compound 0.316 µM, first compound 0.0316 µM
[10] = second compound 0.316 µM, first compound 0.1 µM
[11] = second compound 0.316 µM, first compound 0.316 µM
[12] = second compound 0.316 µM, first compound 1 µM
[13] = second compound 1 µM, first compound 0.0316 µM
[14] = second compound 1 µM, first compound 0.1 µM
[15] = second compound 1 µM, first compound 0.316 µM
[16] = second compound 1 µM, first compound 1 µM
[17] = second compound 3.16 µM, first compound 0.0316 µM
[18] = second compound 3.16 µM, first compound 0.1 µM
[19] = second compound 3.16 µM, first compound 0.316 µM
[20] = second compound 3.16 µM, first compound 1 µM
[21] = second compound 10 µM, first compound 0.0316 µM
[22] = second compound 10 µM, first compound 0.1 µM
[23] = second compound 10 µM, first compound 0.316 µM
[24] = second compound 10 µM, first compound 1 µM
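Further: spheroids exposed to agents for 7 days before read-out.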
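Wherever viability, T/C is given: luminescence used as surrogate of cell viability.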

For CCN1CCN(Cc2ccc(Nc3ncc(F)c(-c4cc(F)c5nc(C)n(C(C)C)c5c4)n3)nc2)CC1 + Cc1nc(NC(=O)N2CCCC2C(N)=O)sc1-c1ccnc(C(C)(C)C(F)(F)F)c1, the IC50 (second compound 0.0316 µM) was greater than 1000 nM, the IC50 (second compound 0.1 µM) was greater than 1000 nM and the IC50 (second compound 0.316 µM) was greater than 1000 nM. For the same molecule, the IC50 (second compound 1 µM) was 162 nM, the IC50 (second compound 3.16 µM) was 77.4 nM and the IC50 (second compound 10 µM) was less than 3.16 nM. For the same molecule, the viability, T/C (second compound 0.0316 µM, first compound 0.00316 µM) was 107%, the viability, T/C (second compound 0.0316 µM, first compound 0.01 µM) was 64.6% and the viability, T/C [1] was 90.9%. The viability, T/C [2] was 77%, the viability, T/C [3] was 77.8% and the viability, T/C [4] was 64.7%. For the same molecule, the viability, T/C (second compound 0.1 µM, first compound 0.00316 µM) was 109%, the viability, T/C (second compound 0.1 µM, first compound 0.01 µM) was 72.5% and the viability, T/C [5] was 90.5%. For the same molecule, the viability, T/C [6] was 67.4%, the viability, T/C [7] was 54.3% and the viability, T/C [8] was 58.9%. The viability, T/C (second compound 0.316 µM, first compound 0.00316 µM) was 75.8%, the viability, T/C (second compound 0.316 µM, first compound 0.01 µM) was 82.1% and the viability, T/C [9] was 64.2%. For the same molecule, the viability, T/C [10] was 58.4%, the viability, T/C [11] was 60.8% and the viability, T/C [12] was 57.4%. For the same molecule, the viability, T/C (second compound 1 µM, first compound 0.00316 µM) was 56%, the viability, T/C (second compound 1 µM, first compound 0.01 µM) was 72% and the viability, T/C [13] was 58.4%. It also gave a viability, T/C [14] of 46.1%, a viability, T/C [15] of 49.4% and a viability, T/C [16] of 32.8%. It also gave a viability, T/C (second compound 3.16 µM, first compound 0.00316 µM) of 62.3%, a viability, T/C (second compound 3.16 µM, first compound 0.01 µM) of 78.5% and a viability, T/C [17] of 59%. The viability, T/C [18] was 49%, the viability, T/C [19] was 44.1% and the viability, T/C [20] was 41.5%. The viability, T/C (second compound 10 µM, first compound 0.00316 µM) was 47.1%, the viability, T/C (second compound 10 µM, first compound 0.01 µM) was 49% and the viability, T/C [21] was 45.4%. The viability, T/C [22] was 37%, the viability, T/C [23] was 40.3% and the viability, T/C [24] was 27.1%.

For Cn1cnc2c(F)c(Nc3ccc(Br)cc3Cl)c(C(=O)NOCCO)cc21 + Cc1nc(NC(=O)N2CCCC2C(N)=O)sc1-c1ccnc(C(C)(C)C(F)(F)F)c1, the IC50 (second compound 0.0316 µM) was 659 nM, the IC50 (second compound 0.1 µM) was 679 nM and the IC50 (second compound 0.316 µM) was 360 nM. It also gave an IC50 (second compound 1 µM) of 304 nM, an IC50 (second compound 3.16 µM) of 97.7 nM and an IC50 (second compound 10 µM) of 39.4 nM. The viability, T/C (second compound 0.0316 µM, first compound 0.00949 µM) was 89%, the viability, T/C (second compound 0.0316 µM, first compound 0.03 µM) was 101% and the viability, T/C (second compound 0.0316 µM, first compound 0.0949 µM) was 104%. For the same molecule, the viability, T/C (second compound 0.0316 µM, first compound 0.3 µM) was 60%, the viability, T/C (second compound 0.0316 µM, first compound 0.949 µM) was 48.1% and the viability, T/C (second compound 0.0316 µM, first compound 3 µM) was 19.7%. For the same molecule, the viability, T/C (second compound 0.1 µM, first compound 0.00949 µM) was 88.3%, the viability, T/C (second compound 0.1 µM, first compound 0.03 µM) was 56.1% and the viability, T/C (second compound 0.1 µM, first compound 0.0949 µM) was 76.7%. It also gave a viability, T/C (second compound 0.1 µM, first compound 0.3 µM) of 61.8%, a viability, T/C (second compound 0.1 µM, first compound 0.949 µM) of 43.8% and a viability, T/C (second compound 0.1 µM, first compound 3 µM) of 28.7%. The viability, T/C (second compound 0.316 µM, first compound 0.00949 µM) was 68.5%, the viability, T/C (second compound 0.316 µM, first compound 0.03 µM) was 81.5% and the viability, T/C (second compound 0.316 µM, first compound 0.0949 µM) was 62.5%. It also gave a viability, T/C (second compound 0.316 µM, first compound 0.3 µM) of 56.7%, a viability, T/C (second compound 0.316 µM, first compound 0.949 µM) of 27% and a viability, T/C (second compound 0.316 µM, first compound 3 µM) of 16%. It also gave a viability, T/C (second compound 1 µM, first compound 0.00949 µM) of 68.8%, a viability, T/C (second compound 1 µM, first compound 0.03 µM) of 64.4% and a viability, T/C (second compound 1 µM, first compound 0.0949 µM) of 61.1%. It also gave a viability, T/C (second compound 1 µM, first compound 0.3 µM) of 51.6%, a viability, T/C (second compound 1 µM, first compound 0.949 µM) of 28.4% and a viability, T/C (second compound 1 µM, first compound 3 µM) of 15.6%. It also gave a viability, T/C (second compound 3.16 µM, first compound 0.00949 µM) of 54%, a viability, T/C (second compound 3.16 µM, first compound 0.03 µM) of 64.8% and a viability, T/C (second compound 3.16 µM, first compound 0.0949 µM) of 49.2%. For the same molecule, the viability, T/C (second compound 3.16 µM, first compound 0.3 µM) was 26.6%, the viability, T/C (second compound 3.16 µM, first compound 0.949 µM) was 9.72% and the viability, T/C (second compound 3.16 µM, first compound 3 µM) was 3.22%. For the same molecule, the viability, T/C (second compound 10 µM, first compound 0.00949 µM) was 54.6%, the viability, T/C (second compound 10 µM, first compound 0.03 µM) was 49.7% and the viability, T/C (second compound 10 µM, first compound 0.0949 µM) was 44.6%. It also gave a viability, T/C (second compound 10 µM, first compound 0.3 µM) of 28.8%, a viability, T/C (second compound 10 µM, first compound 0.949 µM) of 5.99% and a viability, T/C (second compound 10 µM, first compound 3 µM) of 1.33%.

C=CC(=O)N1CCN(c2nc(=O)n(-c3c(C)ccnc3C(C)C)c3nc(-c4c(O)cccc4F)c(F)cc23)C(C)C1 (stereo unspecified) + CC(Nc1ncnc2nc[nH]c12)c1cc2cccc(Cl)c2c(=O)n1-c1ccccc1 showed an IC50 (second compound 0.0316 µM) greater than 10000 nM, an IC50 (second compound 0.1 µM) greater than 10000 nM and an IC50 (second compound 0.316 µM) greater than 10000 nM. For the same molecule, the IC50 (second compound 1 µM) was greater than 10000 nM, the IC50 (second compound 3.16 µM) was greater than 10000 nM and the IC50 (second compound 10 µM) was greater than 10000 nM. For the same molecule, the viability, T/C [1] was 95.8%, the viability, T/C [2] was 104% and the viability, T/C [3] was 99.1%. It also gave a viability, T/C [4] of 102%, a viability, T/C (second compound 0.0316 µM, first compound 3.16 µM) of 96.6% and a viability, T/C (second compound 0.0316 µM, first compound 10 µM) of 108%. For the same molecule, the viability, T/C [5] was 123%, the viability, T/C [6] was 108% and the viability, T/C [7] was 97.7%. The viability, T/C [8] was 94.2%, the viability, T/C (second compound 0.1 µM, first compound 3.16 µM) was 106% and the viability, T/C (second compound 0.1 µM, first compound 10 µM) was 104%. For the same molecule, the viability, T/C [9] was 105%, the viability, T/C [10] was 107% and the viability, T/C [11] was 107%. It also gave a viability, T/C [12] of 104%, a viability, T/C (second compound 0.316 µM, first compound 3.16 µM) of 86.7% and a viability, T/C (second compound 0.316 µM, first compound 10 µM) of 94.8%. The viability, T/C [13] was 107%, the viability, T/C [14] was 98.3% and the viability, T/C [15] was 100%. For the same molecule, the viability, T/C [16] was 97.8%, the viability, T/C (second compound 1 µM, first compound 3.16 µM) was 105% and the viability, T/C (second compound 1 µM, first compound 10 µM) was 76.3%. The viability, T/C [17] was 79.7%, the viability, T/C [18] was 91.6% and the viability, T/C [19] was 81.2%. For the same molecule, the viability, T/C [20] was 98%, the viability, T/C (second compound 3.16 µM, first compound 3.16 µM) was 96.2% and the viability, T/C (second compound 3.16 µM, first compound 10 µM) was 86.6%. It also gave a viability, T/C [21] of 75.7%, a viability, T/C [22] of 83.9% and a viability, T/C [23] of 75.4%. For the same molecule, the viability, T/C [24] was 78.7%, the viability, T/C (second compound 10 µM, first compound 3.16 µM) was 94.4% and the viability, T/C (second compound 10 µM, first compound 10 µM) was 91.9%.
